# Laboratory results as given in article PMC11407758, “Integrated stress response (ISR) activation and apoptosis through HRI kinase by PG3 and other p53 pathway-restoring cancer therapeutics” (Oncotarget, 2024).
# Like-named read-outs stand apart in the source and are kept apart here.
# How the values were obtained:
# [1] = tested on: HT29 (R273H); test: Cell viability assay (CellTiterGlo), HT29; type: cell-based, human; settings: for IC50: 72 h, CellTiterGlo
# Protocol: (§1) Figure 1 PG3 inhibits cell proliferation and growth in a p53-indepent manner. (A–E) Cell viability assay, dose response curves and IC50 value measurements in a panel of cancer cell lines and normal cells. Cells were treated with different concentrations of PG3, PG3-Oc (Oc), obatoclax (Ob), prodigiosin (P) or DMSO for 72 h. Luciferase activity was imaged by the IVIS Imaging System after treatment. Cell viability data were normalized to those of DMSO treatment control in each cell line and data analyses were performed using PRISM4 software. IC50 data are expressed as the mean ±SD (normal; n = 3).
# as §1, with “2 p53-dependent inhibition of” for “1 PG3 inhibits”, “is only observed at specific concentrations. (A–J)” for “and growth in a p53-indepent manner. (A–E)”, “ZMC1, CP-313908, APR-246, Ellipticine, Nutalin-3a” for “PG3, PG3-Oc (Oc), obatoclax (Ob), prodigiosin (P)”
# (§2) Cells were seeded in 96-well plates (6 × 10^3 cells/well). Cells were treated with different concentrations of compounds or dimethyl sulfoxide (DMSO) as a control for 72 hours. The cell viability was assessed by CellTiterGlo bioluminescent cell viability assay (Promega), following the manufacturer’s protocol. Bioluminescence imaging was measured using the IVIS imager. The percentage of cell viability (mean ± SEM) at each dose was calculated against the respective DMSO control. The IC50 values were determined from the sigmoidal dose-response curves using GraphPad Prism.
# [2] = tested on: TOV-112D (R175H); test: Cell viability assay (CellTiterGlo), TOV-112D; type: cell-based, human; settings: Homo sapiens, TOV112D; 72 h, CellTiterGlo; read-out: IC50 values, TOV-1120 (R175H) (converted)
# Protocol: as §1
# as §1, with “2 p53-dependent inhibition of” for “1 PG3 inhibits”, “is only observed at specific concentrations. (A–J)” for “and growth in a p53-indepent manner. (A–E)”, “ZMC1, CP-313908, APR-246, Ellipticine, Nutalin-3a” for “PG3, PG3-Oc (Oc), obatoclax (Ob), prodigiosin (P)”
# as §2
# [3] = tested on: HCT116 (P53−/−); test: Cell viability assay (CellTiterGlo), HCT116 p53-/-; type: cell-based, human; settings: Homo sapiens, HCT-116; 72 h, CellTiterGlo
# Protocol: as §1
# as §1, with “2 p53-dependent inhibition of” for “1 PG3 inhibits”, “is only observed at specific concentrations. (A–J)” for “and growth in a p53-indepent manner. (A–E)”, “ZMC1, CP-313908, APR-246, Ellipticine, Nutalin-3a” for “PG3, PG3-Oc (Oc), obatoclax (Ob), prodigiosin (P)”
# as §2
# [4] = tested on: HCT116 (WT); test: Cell viability assay (CellTiterGlo), HCT116 WT; type: cell-based, human; settings: Homo sapiens, HCT-116; 72 h, CellTiterGlo
# Protocol: as §1
# as §1, with “2 p53-dependent inhibition of” for “1 PG3 inhibits”, “is only observed at specific concentrations. (A–J)” for “and growth in a p53-indepent manner. (A–E)”, “ZMC1, CP-313908, APR-246, Ellipticine, Nutalin-3a” for “PG3, PG3-Oc (Oc), obatoclax (Ob), prodigiosin (P)”
# as §2
# [5] = tested on: HCT116 (R175H); test: Cell viability assay (CellTiterGlo), HCT116 R175H; type: cell-based, human; settings: for IC50: 72 h, CellTiterGlo
# Protocol: as §1
# as §1, with “2 p53-dependent inhibition of” for “1 PG3 inhibits”, “is only observed at specific concentrations. (A–J)” for “and growth in a p53-indepent manner. (A–E)”, “ZMC1, CP-313908, APR-246, Ellipticine, Nutalin-3a” for “PG3, PG3-Oc (Oc), obatoclax (Ob), prodigiosin (P)”
# as §2
# [6] = tested on: HFF-1 (human foreskin fibroblast cell with wild-type p53); test: Cell viability assay (CellTiterGlo), HFF-1 normal cells; type: cell-based; settings: 72 h, CellTiterGlo, normal cells, read-out: IC50 values, HFF-l (WT)
# Protocol: as §1
# as §1, with “2 p53-dependent inhibition of” for “1 PG3 inhibits”, “is only observed at specific concentrations. (A–J)” for “and growth in a p53-indepent manner. (A–E)”, “ZMC1, CP-313908, APR-246, Ellipticine, Nutalin-3a” for “PG3, PG3-Oc (Oc), obatoclax (Ob), prodigiosin (P)”
# as §2
# [7] = tested on: MRC5 (human lung fibroblast cell with wild-type p53); test: Cell viability assay (CellTiterGlo), MRC5 normal cells; type: cell-based; settings: read-out: IC50 values, MRC5 (WT)
# Protocol: as §1
# as §1, with “2 p53-dependent inhibition of” for “1 PG3 inhibits”, “is only observed at specific concentrations. (A–J)” for “and growth in a p53-indepent manner. (A–E)”, “ZMC1, CP-313908, APR-246, Ellipticine, Nutalin-3a” for “PG3, PG3-Oc (Oc), obatoclax (Ob), prodigiosin (P)”
# as §2
# [8] = tested on: HT29, TOV-112D, isogenic HCT116 cell lines, HFF-1 and MRC5; test: Cell viability assay, panel of cancer cell lines and normal cells (results in words); type: cell-based, human; settings: 10 μM; all cell lines tested and normal cells
# Protocol: as §1, with “2 p53-dependent inhibition of” for “1 PG3 inhibits”, “is only observed at specific concentrations. (A–J)” for “and growth in a p53-indepent manner. (A–E)”, “ZMC1, CP-313908, APR-246, Ellipticine, Nutalin-3a” for “PG3, PG3-Oc (Oc), obatoclax (Ob), prodigiosin (P)”
# as §2
# [9] = tested on: HCT116 (wild-type), SW480 (R273H, P309S), and DLD1 (S241F); test: Cell viability assay in colorectal cancer cell lines (Figure 1E); type: cell-based, human; settings: 72 h
# Protocol: as §1, §2
# [10] = tested on: SW480 cells carrying a p53-responsive luciferase reporter; test: p53-responsive reporter assay; type: cell-based, human
# Protocol: SW480 cells carrying a p53-responsive luciferase reporter were used for assay of functional restoration of mutant p53. Cells were seeded in 96-well plates (5 × 10^4 cells/well) and were treated with compounds indicated for 6 and 15 h, respectively. Then, D-luciferin was added to each well with final concentration 100 μg/mL, and cells were imaged by using an IVIS Imaging System to detect luciferase activity.
# p53-mutant SW480 human colon cancer cells, stably expressing a p53-responsive luciferase reporter, were used to assay functional restoration p53 pathway-dependent transcription in mutant p53-expressing tumor cells. Cells were seeded in 96-well plates (5 × 10^4 cells/well) and were treated with small-molecule compounds for 6 and 15 h, respectively. Then, D-luciferin was added to each well at a final concentration of 100 μg/mL, and cells were imaged by using an IVIS Imaging System (Xenogen) to detect luciferase activity.
# [11] = tested on: ATF4; test: Western blot, ATF4 induction; type: cell-based, human; settings: 24 h
# Protocol: (§3) Figure 4 Activation of ATF4 and up-regulation of typical p53 target genes. (A–E) Western blot analysis of p53 protein levels and upregulation of ATF4, PUMA, DR5 and p21. Cells were treated for 24 h with indicated compounds, concentrations and cell lines. Abbreviations: S.E.: Short exposure; L.E.: Long exposure.
# (§4) After treatment, protein lysates were collected for Western blot analysis. A total of 15 μg of protein was used for SDS-PAGE. After primary and secondary antibody incubations, the signal was detected by a chemiluminescence detection kit, imaged by Syngene (Imgen Technologies). Antibodies for NAG-1 (GDF15) and P53 were from Santa Cruz Biotechnology; for caspase 8, cleaved caspase 8, caspase 9, caspase 3, cleavage PARP, eIF2α, p-eIF2α (Ser51), CHOP, ATF4, DR5, and PUMA were from Cell Signaling Technology. Noxa and p21 were from Calbiochem. Ran was from BD Biosciences.
# [12] = tested on: p53 protein; test: Western blot, p53 protein levels; type: cell-based, human; settings: for wild-type p53 protein level: HCT116, 24 h; for endogenous mutant p53 R273H protein level: HT29, 24 h; for endogenous mutant p53 R175H protein level: TOV-112D; for endogenous mutant p53 R175H protein level / exogenous mutant p53 R175H protein level: 24 h; for exogenous mutant p53 R175H protein level: engineered HCT116-R175H cells
# Protocol: Cells were treated for 24 h with indicated compounds, concentrations and cell lines. Abbreviations: S.E.: Short exposure; L.E.: Long exposure.
# as §4
# [13] = tested on: DR5; test: Western blot, DR5 induction; type: cell-based, human
# Protocol: as §3, §4
# [14] = tested on: PUMA; test: Western blot, PUMA induction; type: cell-based, human
# Protocol: as §3, §4
# [15] = tested on: p21; test: Western blot, p21 induction; type: cell-based, human
# Protocol: as §3, §4
# [16] = cited from earlier work
molecule,measurement,setting,value
CCCCCCCCOC(=O)CCc1c(C)[nH]c(/C=C2\N=C(c3ccc[nH]3)C=C2OC)c1C [PG3-Oc],IC50,"[1]; Homo sapiens, HT-29",31 nM
same,IC50,[2],38 nM
same,IC50,[3],62 nM
same,IC50,[4],47 nM
same,IC50,"[5]; Homo sapiens, HCT-116",52 nM
same,IC50,"[6]; Homo sapiens, HFF-1",306 nM
same,IC50,"[7]; Homo sapiens, MRC5, 72 h",78 nM
same,toxicity at 10 μM,[8],too toxic
same,"potency compared among PG3-Oc, prodigiosin and Obatoclax",[9],same potency
same,p53-responsive reporter activity,"[10]; 1.11 μM, 6 hour and 15 hour time points",do not activate reporter activity
same,p53-responsive reporter activity,"[10]; 10 μM, 6 hours",activation
same,upregulation of ATF4,[11]; five cancer cell lines,induce upregulation of ATF4
same,wild-type p53 protein level,[12],do not upregulate expression
same,endogenous mutant p53 R273H protein level,[12],no effects on stability
same,endogenous mutant p53 R175H protein level,[12],no effects on stability
same,exogenous mutant p53 R175H protein level,[12],stabilize
same,upregulation of DR5,"[13]; five cell lines, 24 h",consistently induce upregulation
same,upregulation of PUMA,"[14]; five cell lines, 24 h",consistently induce upregulation
same,upregulation of p21,"[15]; five cell lines, 24 h",consistently induce upregulation
same,stability in vivo,[16],unstable in vivo
prodigiosin,"potency compared among PG3-Oc, prodigiosin and Obatoclax",[9],same potency
COc1ccc(/C=C/c2nc(NCCCN(C)C)c3ccccc3n2)cc1 [CP-31398],IC50,[1],647 nM
same,inhibition of cell viability,"[1]; HT29, 0.04 μM",potently inhibited
same,fold more potency in HT29 than in HFF-1,[1]; HT29 vs HFF-1,12.2 fold
same,fold more potency in HT29 than in MRC5,[1]; HT29 vs MRC5,9.1 fold
same,IC50,[5],9580 nM
same,selective inhibition among HCT116 isogenic cell lines,"[5]; HCT116-R175H compared to HCT116 (WT) and HCT116 p53–/–, 10 μM",selective inhibition
same,IC50,[6],7920 nM
same,IC50,[7]; 72 h,5920 nM
same,p53-responsive reporter activity,"[10]; 30 μM, 15 hour time point",able to activate the reporter
same,upregulation of ATF4,"[11]; HT29 and TOV-112D, compared to PG3 and PG3-Oc",more potently induces upregulation of ATF4
same,upregulation of ATF4,[11]; three isogenic HCT116 cell lines,does not upregulate ATF4
same,wild-type p53 protein level,[12],marginal stabilization
same,endogenous mutant p53 R273H protein level,[12],stabilizes
same,endogenous mutant p53 R175H protein level,[12],marginally destabilizes
same,exogenous mutant p53 R175H protein level,[12],no effects
same,upregulation of DR5,"[13]; HCT116 (p53 wild-type), 24 h",does not upregulate DR5
same,upregulation of DR5,"[13]; HCT116 p53-R175H, 24 h",does not upregulate DR5
same,upregulation of DR5,"[13]; HCT116 p53–/–, 24 h",does not upregulate DR5
same,upregulation of DR5,"[13]; HT29, 24 h",mildly upregulates DR5
same,upregulation of DR5,"[13]; TOV-112D, 24 h",upregulates DR5 in a comparable manner to PG3 and PG3-Oc
same,upregulation of PUMA,"[14]; HCT116 (p53 wild-type), 24 h",induces PUMA expression
same,upregulation of PUMA,"[14]; HCT116 p53-R175H, 24 h",barely
same,upregulation of PUMA,"[14]; HCT116 p53–/–, 24 h",barely
same,upregulation of PUMA,"[14]; HT29, 24 h",induces PUMA expression
same,upregulation of PUMA,"[14]; TOV-112D, 24 h",barely
same,upregulation of p21,"[15]; HCT116 (p53 wild-type), 24 h",significantly
same,upregulation of p21,"[15]; HCT116 p53-R175H, 24 h",barely
same,upregulation of p21,"[15]; HCT116 p53–/–, 24 h",barely
same,upregulation of p21,"[15]; HT29, 24 h",significantly
same,upregulation of p21,"[15]; TOV-112D, 24 h",upregulates p21 strongly
